Data as given in patent US11919905B2, “Substituted benzo[f]imidazo[1,2-a][1,4]diazepines as anesthetics” (HANGZHOU ADAMERCK PHARMLABS INC., priority 2017, dated 2024).

Tests used:
ICR mice [1] = experiment: Disappearance of righting reflex in mice induced by drugs (single i.v. bolus); assay type: in vivo; settings: 100 mg/kg single bolus via tail vein, male ICR mice
Protocol: After ICR mice (male, 18-25 g) were fast injected with the same dose (100 mg/kg) of the test drug in a single bolus via the tail vein, the incubation period and the duration of disappearance of the righting reflex in mice were recorded. Wherein, the incubation period refers to the time from the start of administration to the disappearance of the animal's righting reflex, and the duration refers to the time from the disappearance of the righting reflex to the recovery.

ICR mice [2] = experiment: Effective dose and lethal dose of intravenous administration in mice; assay type: in vivo; settings: single bolus via tail vein, male ICR mice; for minimal effective dose: Mus musculus, iv, read-out: Effective dose (lowest dose causing the righting reflex to disappear)
Protocol: ICR mice (males, 18-25 g) were randomly grouped and were fast given a single bolus of different doses of test drug via the tail vein, and the lowest dose causing the righting reflex to disappear (effective dose) and the dose causing animal death (lethal dose) were recorded, and the treatment windows (lethal dose/effective dose) were calculated.

| SMILES | Duration (time from disappearance of righting reflex to recovery) (ICR mice [1]) [min] | Incubation period (time from start of administration to disappearance of righting reflex) (ICR mice [1]) [min] | minimal effective dose (ICR mice [2]) [mg/kg] | Lethal dose (dose causing animal death) (ICR mice [2]) [mg/kg] | Treatment window (lethal dose/effective dose) (ICR mice [2]) |
| --- | --- | --- | --- | --- | --- |
| COC(=O)CC[C@@H]1N=C(c2ccccn2)c2cc(Cl)c(Cl)cc2-n2c(C)cnc21.Cc1ccc(S(=O)(=O)O)cc1 [Compound 1-12] | 8.35 | 0.42 | 60 | 300 | 5 |
| COC(=O)CC[C@@H]1N=C(c2ccccn2)c2cc([N+](=O)[O-])c(C)cc2-n2c(C)cnc21.Cc1ccc(S(=O)(=O)O)cc1 [Compound 1-7] | 8.39 | 0.60 | 40 | 240 | 6 |
| COC(=O)CC[C@@H]1N=C(c2ccccn2)c2cc(F)c(C)cc2-n2c(C)cnc21.Cl [Compound 1-3] | 7.20 | 0.30 | 60 | 280 | 4.67 |
| COC(=O)CC[C@@H]1N=C(c2cccnc2)c2cc(F)c(C)cc2-n2c(C)cnc21.Cc1ccc(S(=O)(=O)O)cc1 [Compound 1-4] | 9.32 | 0.37 | 80 | 280 | 3.5 |
| COC(=O)CC[C@@H]1N=C(c2cccnc2)c2cc(F)c(C(F)(F)F)cc2-n2c(C)cnc21.Cc1ccc(S(=O)(=O)O)cc1 [Compound 1-14] | 6.30 | 0.58 | 100 | 360 | 3.6 |
| COC(=O)CC[C@@H]1N=C(c2ccccn2)c2cc(F)c(C)cc2-n2c(C)cnc21.O=S(=O)(O)c1ccccc1 [Compound 1-1] | 7.00 | 0.35 | 60 | 320 | 5.3 |
| COC(=O)CC[C@@H]1N=C(c2ccccn2)c2cc(OC)c(OC)cc2-n2c(C)cnc21.Cc1ccc(S(=O)(=O)O)cc1 [Compound 1-10] | 7.86 | 0.48 | 80 | 300 | 3.75 |
| COC(=O)CC[C@@H]1N=C(c2ccccn2)c2cc(Br)c(C)cc2-n2c(C)cnc21.Cc1ccc(S(=O)(=O)O)cc1 [Compound 1-6] | 7.98 | 0.47 | 100 | 380 | 3.8 |
| COC(=O)CC[C@@H]1N=C(c2ccccn2)c2cc(C)c(C)cc2-n2c(C)cnc21.Cc1ccc(S(=O)(=O)O)cc1 [Compound 1-13] | – | – | 80 | 320 | 4 |
